Assay results as given in article PMC4389443 (Respiratory Research, 2015).

Test system: BALB/c mice
Assay: House dust mite/Rhinovirus exacerbated asthma model
Assay type: in vivo, mouse
Conditions: 24 hours post RV1b infection
Method: Study performed at the University of Newcastle under local ethics committee. BALB/c mice were sensitized and challenged intranasally to 50 μg of crude HDM extract (Dermatophagoides pteronyssinus extract was obtained from Greer Laboratories) on days 0, 1 and 2 followed by four exposures of 5 μg HDM daily from day 14 to day 17 delivered in 50 μl of sterile saline. Animals were then infected on day 18 with infective Human Rhinovirus 1b RV1B41 (2.5 × 10^6 median tissue culture infective dose) intranasally. Mice were intranasally administered 50 μl infective or ultraviolet light (UV)–inactivated RV1B41. Mice were euthanized 24 hours after the rhinovirus challenge. BAL analysis was performed for total and differential counts and airway hyperreactivity (AHR) was assessed invasively by measurement of total lung resistance and dynamic compliance (BUXCO) in response to methacholine challenge as previously described. […]. Dose of azithromycin was chosen based on previously described findings, in respiratory viral infection models.

Compound: CC(C)(C)NC(=O)c1ccc(OC/C(=C/F)CN)cc1 [PXS-4728A]
- Airways hyperreactivity to methacholine challenge (PXS-4728A 2, azithromycin 25 mg.kg^−1 ip.): significantly reduced
- Total BALF neutrophils (PXS-4728A 2, dexamethasone 2, azithromycin 25 mg.kg^−1 ip.): reduced
